Laboratory results taken from patent US12144786B2 (priority 2020, dated 2024).
Ends that are not written are not given here.

Tests used:
[1] = tested on: animal models of brain injury and stroke; conditions: cited from earlier work
[2] = tested on: rodent models of depression; conditions: cited from earlier work
chronic anorexia nervosa = assay: Case study: ketogenic diet followed by IV ketamine infusions in a patient with chronic anorexia nervosa; assay type: in vivo, human
patients = conditions: usually; rarely longer than 2 hours; cited from earlier work
healthy volunteers = conditions: 80-minute infusion of 0.4 or 0.8 mg/kg, 3 days later; cited from earlier work
[3] = up to 4 doses of 0.1-0.5 mg/kg IV over 2 weeks, 8-month follow-up; cited from earlier work
[4] = tested on: patients with eating disorders; conditions: 10-hour infusions of 20 mg/hour; cited from earlier work
[5] = 10 4-hour infusions of up to 20 mg/hour; cited from earlier work
[6] = tested on: patients treated for depression; conditions: 6630 patients, six or more repeated parenteral infusions for depression; cited from earlier work
[7] = in vivo; cited from earlier work
[8] = in vivo; cited from earlier work; remark: listed apart in the source
[9] = in vivo, cited from earlier work
[10] = in vivo; cited from earlier work; remark: listed apart in the source

For `C[C@@H]([C@@H](O)c1ccc(O)cc1)N1CCC(O)(c2ccccc2)CC1` [CP-101,606], the protection [1] is given as “protective”.

For `C[C@@H](CN1CCC(Cc2ccccc2)CC1)[C@@H](O)c1ccc(O)cc1` [Ro 25-6981], the antidepressant actions [2] is listed as “rapid antidepressant actions”.

With `CNC1(c2ccccc2Cl)CCCCC1=O` (racemic) [ketamine, (RS)-2-(2-chlorophenyl)-2-(methylamino)cyclohexanone] the “onset of effect on anorexic thoughts (AN voice) after first infusion” value (chronic anorexia nervosa; 40-minute IV infusion 0.75 mg/kg (42.68 mg) after 3 months on ketogenic diet, moderate ketosis for 14 days) was “Within one hour, they felt the AN voice was weakening”, the “anorexia symptoms by the end of treatment” value (chronic anorexia nervosa; four infusions over 15 days (0.75, 1.0, 1.1, 1.2 mg/kg) on ketogenic diet) was “they no longer felt anorexic any more” and the “compulsive exercise by the end of treatment” value (chronic anorexia nervosa; four infusions over 15 days on ketogenic diet) was “They could exercise and stop exercising at their own wish”. For the same molecule, the BMI (chronic anorexia nervosa; throughout the treatment (duration 15 days) and months after) was about 20.8, the “duration of dissociative symptoms” value (patients) was “less than 60 minutes” and the residual effects (healthy volunteers) was “does not result in any residual effects”. The adverse events [3] was “no adverse events”, the “side effects (headache, nausea, sedation, revival of distant memories)” value [4] was “no longer occurred after the first infusion or were no longer seen as unpleasant” and the “patients experiencing restlessness, headaches, or significant heart rate increases” value [5] was 7-13%. For the same molecule, the “patients with a side effect that led to discontinuation of treatment” value [6] was 0.7%.

In the case of `CN[C@@]1(c2ccccc2Cl)CCCCC1=O` [(R)-ketamine], the “antidepressant effects and psychotomimetic side effects” value [7] is listed as “rapid-onset and sustained antidepressant effects without psychotomimetic side effects”.

For `Cc1ncc2n1-c1ccc(Cl)cc1C(c1ccccc1F)=NC2` [Midazolam], the “half-life (t½)” value [8] is given as 2.5 h.

In the case of “Thr-Pro-Pro-Thr-NH2 (TPPT-NH2) [Rapastinel, amidated tetrapeptide, NMDA receptor glycine site partial agonist]”, the oral activity ([9]; po) is listed as “not active orally” and the “blood brain barrier crossing” value [9] is listed as “rapidly crosses the blood brain barrier”.

For `N[C@@]1(c2ccccc2Cl)CCC[C@@H](O)C1=O` [(2R,6R)-HNK], the hypnotic effect [10] is given as “non-hypnotic” and the “role in antidepressant effects of ketamine” value [10] is given as “essential for the antidepressant effects of ketamine”.
